How the values were obtained:
in vitro = settings: human
Protocol: (§1) To investigate the effects of the in silico identified compounds on cell viability, we used CYP2C19-overexpressing HepG2 cells (Figure 3). Different concentrations (ranging from 0.003 to 100 μM) were tested.
(§2) Figure 3 Resazurin assay of cytochrome P450 2C19-overexpressing HepG2 cells treated with different concentrations of the six selected compounds. All experiments were performed in three replicate measurements of mean ± SD.
(§3) CYP2C19-overexpressing HepG2 cells were originated as previously described. Cells were grown in DMEM medium (DMEM, 31966021, Gibco™, Billings, MT, USA) at 37 °C and 5% CO2 in a humidified incubator. DMEM media were supplemented with 10% fetal bovine serum (FBS) and with 3 μg/mL blasticidin (ant-bl-05, InvivoGen, San Diego, CA, USA) to preserve the selection of transfected CYP2C19-overexpressing HepG2 cells.
(§4) Aliquots of 10^4 CYP2C19-overexpressing HepG2 cells were seeded per well into 96-well plates. Cells were treated with different concentrations of the selected compounds with a range from 0.003 to 100 µM in a total volume of 200 µL for 72 h. Successively, 20 µL/well of resazurin 0.01% w/v (Sigma Aldrich, Taufkirchen, Germany) was added. The fluorescence intensity was measured with an Infinite M200 Pro-plate reader (Tecan, Crailsheim, Germany). Dose–response curves were engendered for three independent experiments for each compound, and 50% inhibition concentrations (IC50) were calculated. The analysis was represented using the […] GraphPad Software (version 9.5.1) (La Jolla, CA, USA).

[1] = tested on: CYP2C19-overexpressing HepG2 cells; test: RNA sequencing with pathway enrichment analysis; format: cell-based; settings: for genes of 'cholesterol biosynthetic process' influenced by only one compound: Venn diagram of compounds 4-6, vs DMSO; for genes of 'DNA replication' pathway exclusively influenced by the compound: Venn diagram of compounds 4 and 6, vs DMSO
Protocol: Functional enrichment analysis with clusterProfiler was executed using the gene ontology biological process annotation. Finally, with the GeneTonic software (version 2.4.0), a visual summary of the influenced pathways, from here on referred to as 'enriched pathways', was created. […] The size of the dots corresponds to the number of genes in the reference gene set. […] Control cells were treated with 0.2% DMSO. After 24 h of incubation, the cells were harvested. RNA extraction was performed with an […] RNA Mini Kit (Invitek Molecular GmbH, Berlin, Germany) according to the manufacturer's instructions. The cell pellet was lysed with 350 μL of Lysis Solution and treated with β-mercaptoethanol. After DNA removal, 350 μL of 70% ethanol was added, and the sample was applied onto the RNA-RTA spin filter. After several washing steps, RNA was eluted with 60 μL of Elution Buffer R, and the concentration and purity were measured with NanoDrop. RNA sequencing was performed by […] GmbH, Mainz, Germany. The quality of the extracted RNA was verified by the company with a 2100 Bioanalyzer system (Agilent Technologies, Santa Clara, CA, USA). After mRNA isolation and library preparation using a NEBNext^© UltraTM II Directional RNA Library Prep Kit (New England Biolabs, Ipswich, MA, USA), RNA sequencing of around 25 Mio PE reads (2 × 12.5 M reads, 2 × 150 nt) was performed with an Illumina NextSeq 2000TM system. Each treatment and control group included two replicates. The FastQC tool (0.12.0, https://www.bioinformatics.babraham.ac.uk/projects/fastqc/) (accessed 15 February 2023) was used for quality control on the sequencing data. Transcript abundance estimates were computed with Salmon (version 1.5.0) with a transcriptome index generated by GENCODE (version 38) and then summarized to the gene level with the […] package (version 1.16.0). Exploration, modelling, and interpretation of the expression data followed the protocols defined by Ludt et al. […] Exploratory data analysis was performed with the pcaExplorer package (version 2.24.0). […] Accurate estimation of the effect sizes (described as log2-fold changes) was performed using the […] shrinkage estimator (version 1.20.0). Further analyses included gene ontology pathway enrichment by topGO (version 2.50.0) using all expressed genes as a background dataset and the ideal package (version 1.22.0) and by clusterProfiler (version 4.6.0) with default settings and the log2-fold change as the input.

[2] = tested on: CYP2C19-overexpressing HepG2 cells; format: cell-based
Protocol: Figure 8 Flow cytometric cell cycle analysis of cytochrome CYP2C19-overexpressing HepG2 cells treated with IC50 concentrations of compounds 4 and 6. The data are represented as mean and SD of three independent experiments. (* p < 0.05, ** p < 0.01, compared to DMSO-treated cells).
CYP2C19-overexpressing HepG2 cells were treated with IC50 concentrations of compounds 4 and 6 for 24 h. Then, the cells were fixed using 80% cold ethanol and stored overnight at −20 °C. Successively, the cells were washed twice with PBS and resuspended in 1 mL of cold PBS containing 1mg/mL RNaseA (Sigma-Aldrich, Taufkirchen, Germany) and 50 μg/mL PI (Sigma-Aldrich, Taufkirchen, Germany). After 15 min of incubation, the measurements were performed using a BD LSRFortessa™ Cell Analyzer (Becton-Dickinson, Heidelberg, Germany). DMSO-treated cells were used as a negative control.

[3] = tested on: CYP2C19-overexpressing HepG2 cells; test: Resazurin reduction assay (growth inhibition / cytotoxicity); settings: CYP2C19-overexpressing HepG2 cells, 0.003 to 100 μM, 72 h
Protocol: as §1, §2, §3, §4

[4] = IC50 concentration, 24 h, vs DMSO

| Compound | IC50 at 72 h (in vitro) | cell death mechanisms 'autophagy' and 'process utilizing autophagic mechanism' [1, 4] | pathways 'cholesterol metabolic process' and 'sterol metabolic process' [1, 4] | pathways 'cytokine production' and 'regulation of cytokine production' [1, 4] | genes of 'cholesterol biosynthetic process' influenced by only one compound [1] | affected genes related to 'regulation of cytokine production' ([1]; vs DMSO) | G0/G1 population [2] | percentage change in the sub-G0 and G2/M phases [2] | percentage of S-phase cells [2] | mitosis-related pathways ('mitotic sister chromatid segregation', 'sister chromatid segregation', 'regulation of mitotic sister chromatid separation', 'chromosome organization') [1, 4] | pathway 'DNA replication' [1, 4] | genes of 'DNA replication' pathway exclusively influenced by the compound [1] | further results |
| --- | --- | --- | --- | --- | --- | --- | --- | --- | --- | --- | --- | --- | --- |
| CC(c1cc(C(C)(C)C)cc(C(C)(C)C)c1O)c1cc(C(C)(C)C)cc(C(C)(C)C)c1O [compound 5, 1,1-bis(3,5-di-tert-butyl-2-hydroxyphenyl)ethane] | 18.1 ± 0.68 µM | activated | suppressed | activated | three | 80 genes | – | – | – | – | – | – | pathways 'steroid biosynthetic process', 'alcohol biosynthetic pathway', 'alcohol metabolic process', 'organic hydroxy compound metabolic process' [1, 4]: suppressed |
| CC(C)(C)CC(C)(C)c1ccc(O)c(-n2nc3ccccc3n2)c1 [compound 3, octrizole] | 67.5 ± 2.05 µM | – | – | – | – | – | – | – | – | – | – | – | – |
| O=C(OC1CCCCC1)c1ccccc1C(=O)OC1CCCCC1 [compound 1, dicyclohexyl phthalate] | 88 ± 7.77 µM | – | – | – | – | – | – | – | – | – | – | – | – |
| Cc1cc(Cc2cc(C)cc(C3CCCCC3)c2O)c(O)c(C2CCCCC2)c1 [compound 6, 2,2′-methylene bis(6-cyclohexyl-4-methylphenol)] | 20.16 ± 0.06 µM | – | – | – | one | – | 72.30 ± 1.68% | No significant percentage change | 6.76 ± 3.28% | suppressed | suppressed | nine | angiogenesis-related pathways 'vasculature development', 'blood vessel morphogenesis', 'blood vessel development' [1, 4]: activated; pathway 'inflammatory response' [1, 4]: activated; pathway 'response to nutrients levels' [1, 4]: activated; pathways 'nuclear chromosome segregation', 'mitotic nuclear division', 'chromosome segregation' [1, 4]: down-regulated |
| CC(C)COC(=O)c1ccccc1C(=O)OCC(C)C [compound 2, diisobutyl phthalate] | > 100 µM | – | – | – | – | – | – | – | – | – | – | – | cytotoxic effect [3]: did not exhibit any cytotoxic effect |
| Cc1cc(Cc2cc(C)cc(C(C)(C)C)c2O)c(O)c(C(C)(C)C)c1 [compound 4, 2,2′-methylene bis(6-tert-butyl-4-methylphenol)] | 18.6 ± 0.94 µM | activated | suppressed | activated | two | 82 genes | 74.11 ± 1.98% | No significant percentage change | 8.05 ± 1.92% | suppressed | suppressed | Forty-one | pathway 'DNA-templated DNA replication' [1, 4]: suppressed; pathway 'metaphase/anaphase transition of mitotic cell cycle' [1, 4]: suppressed |

Reference: publication PMC10459118, “The Effect of Plastic-Related Compounds on Transcriptome-Wide Gene Expression on CYP2C19-Overexpressing HepG2 Cells” (Molecules, 2023)
